Assay results as given in patent publication US20250041412A1, “TRANSMEMBRANE NEOANTIGENIC PEPTIDES” (INSTITUT CURIE, priority 2021, published 2025).
Entries after “also recorded” stand apart in the source; their conditions may differ.

B1: chimeric transcript-derived peptide RLADHLSFC (peptide)
peptide: RLADHLSFC
notes: Synthetic peptide; also called peptide 64
B2: chimeric transcript-derived peptide MLMKTVWQA (peptide)
peptide: MLMKTVWQA
notes: Synthetic peptide; also called peptide 80

Key:
[1] = system: CD8+ T cells; assay: Priming of naive CTLs by peptide-loaded moDCs, two-colour tetramer staining (immunogenicity); format: cell-based, human; conditions: for expansion of specific CD8+ T cells (tetramer staining): one HLA-A2+ healthy donor, at least one magnitude order more tetramer positive cells than control without peptides; for specific CD8+ T expansions (immunogenicity): total of 6 HLA-A2+ healthy donors, FIG. 12A
Protocol: Priming of naïve CTLs. PBMCs were obtained by Ficoll gradient separation from HLA-A2+healthy blood donors. CD14+, CD4+ and CD8+ cells were purified by positive selection using magnetic beads (Miltenyi Biotec). While CD4+ and CD8+ T cells were cryopreserved until the experiment day, CD14+ fraction was cultured in the presence of IL-4 (50 ng/mL) and GM-CSF (10 ng/mL) at 10^6 cells/mL during 5 days to obtain moDCs. After this period of time, the moDCs were maturated with LPS and incubated with synthetic ER-derived peptides at a final concentration of 1 μg/mL for 2 hours. Finally, peptide-loaded moDCs were co-cultured with autologous CD4+ and CD8+ T cells in culture medium supplemented with IL-2 (10 U/ml) and IL-7 (100 ng/ml). The ER-derived peptide stimulation of specific CD8+CTL populations was assessed by MHC-I tetramer staining by flow cytometry using a combination of two-color tetramer for each peptide.
(§1) Tetramer Staining. Cells were resuspended in PBS, stained with Live/Dead Aqua-405 nm (ThermoFisher) during 20 minutes at 4° C. and washed once. After that, cells were resuspended in PBS-1% BSA containing the mix of SA-coupled tetramers and incubated in the dark at room temperature during 20 minutes. Without further washing, surface antibodies were added in PBS-1% BSA and cells were incubated 20 minutes in the dark at 4° C. Surface antibodies were a combination of anti-CD3-BV650+anti-CD8-PECy7 in combination with anti-CCR7-AF700+anti-CD45RA-BUV395 when required. Finally, cells were washed twice and resuspended in FACS buffer for flow cytometry analysis.
Priming assays were thus performed to test the ability of identified peptides to expand specific cytotoxic T cells. PBMCs from HLA-A2+healthy donors were used to generate monocyte derived-DCs (moDCs). After loading the moDCs with a mix of synthetic peptides, autologous co-culture was performed with CD4+ and CD8+ T cells. Finally, the expansion of specific CD8+ T cells was analysed by flow cytometry using two-colours tetramer staining. As a control of specific expansion, the co-culture was performed in the absence of peptides.
The same experiment was performed in order to evaluate the response in additional 5 donors. […] As a positive of expansions, mutated Melan-A peptide ([…]) were used.

[2] = system: CD8+ T cells; assay: Tetramer staining of CD8+ T cells from LUAD patient samples (TILs, tumor, juxta tumor, lymph nodes, blood); format: cell-based, human; conditions: TILs from LUAD patients expanded with peptide mix + IL-2 or IL-2 only
Protocol: as §1
Tissues and Blood samples. […]
Tumor infiltrating lymphocytes (TILs) cultures. […] Cells were feed/split as necessary during 15-20 days and cryopreserve or analyzed for tetramer staining.
In a first set of experiments tumor infiltrating lymphocytes (TILs) expanded with a mix of TE-derived peptides and Il-2, or only with Il-2, were analyzed by tetramer staining. […]
Using this strategy, CD8+ T cells present in Tumor, juxta-tumor, invaded lymph-nodes and blood derived from LUAD patient samples were thus analyzed. The cell phenotype was determined based on the expression of surface markers CCR7 and CD45RA for Naïve (CCR7+CD45+), Central Memory (CM, CCR7+CD45RA−) Effector Memory (EM, CCR7−CD45−) and Terminal Effectors (TE, CCR7−CD45+) T cells. […]

[3] = biological target: T1, HLA-A2 molecule (HLA-A*02:01), recombinant monomer (human); assay: HLA-A2 monomer stabilisation and tetramer formation with synthetic peptide, flow cytometry with PE anti-b2m; positive control CMV peptide
T1 construct: Peptide-free monomer that is incubated with a synthetic peptide for 48 h at 18 C; also called HLA-A2 allele; HLA-A2 monomers

Row | Molecule | specific CD8+ T expansions (immunogenicity) [1] | also measured
1 | AILPKANTV | specific CD8+ T expansions | expansion of specific CD8+ T cells (tetramer staining) [1]: expand specific CD8+ T cells
2 | AMDGKELSL | specific CD8+ T expansions | –
3 | FLGTRVTRV | specific CD8+ T expansions | –
4 | FLIVAEILI | – | expansion of specific CD8+ T cells (tetramer staining) [1]: expand specific CD8+ T cells
5 | GLLNISHTA | specific CD8+ T expansions | –
6 | GLPSHVELA | specific CD8+ T expansions; also recorded: immunogenic | CD8+ T cells / TILs recognizing the peptide (tetramer positive) [2]: found TILs recognizing peptide
7 | ILHSLVTGV | specific CD8+ T expansions | –
8 | ILSGYGPCV | specific CD8+ T expansions | –
9 | ILTASITSI | specific CD8+ T expansions | –
10 | LLDRFGYHV | specific CD8+ T expansions | –
11 | LLGETKVYV | specific CD8+ T expansions | expansion of specific CD8+ T cells (tetramer staining) [1]: expand specific CD8+ T cells
12 | LLHLESFLV | specific CD8+ T expansions | –
13 | LLTSWHLYL | specific CD8+ T expansions | –
14 | MLMKTVWQA | specific CD8+ T expansions | –
15 | MLVTWELAL | specific CD8+ T expansions | –
16 | RLADHLSFC | specific CD8+ T expansions; also recorded: immunogenic | expansion of specific CD8+ T cells (tetramer staining) [1]: expand specific CD8+ T cells

Row | Molecule | specific CD8+ T expansions (immunogenicity) [1] | also measured
17 | RLLHLESFL | specific CD8+ T expansions | expansion of specific CD8+ T cells (tetramer staining) [1]: expand specific CD8+ T cells
18 | RQAPGFHHA | specific CD8+ T expansions | –
19 | SLMQSGSPV | specific CD8+ T expansions | –
20 | VLLTNTIWL | specific CD8+ T expansions | –
21 | VLMWTMAHL | specific CD8+ T expansions | –
22 | YLPYFLKSL | specific CD8+ T expansions | –
23 | YLWTTFFPL | specific CD8+ T expansions | expansion of specific CD8+ T cells (tetramer staining) [1]: expand specific CD8+ T cells
24 | AMDGKELSL (Synthetic peptide) [chimeric transcript-derived peptide AMDGKELSL] | – | percentage of fluorescence relative to positive control (HLA-A2 tetramer formation) [3]: > 50%
25 | FLGTRVTRV (Synthetic peptide) [chimeric transcript-derived peptide FLGTRVTRV] | – | percentage of fluorescence relative to positive control (HLA-A2 tetramer formation) [3]: > 50%
26 | AILPKANTV (Synthetic peptide) [chimeric transcript-derived peptide AILPKANTV] | – | percentage of fluorescence relative to positive control (HLA-A2 tetramer formation) [3]: > 50%
27 | FLIVAEILI (Synthetic peptide) [chimeric transcript-derived peptide FLIVAEILI] | – | percentage of fluorescence relative to positive control (HLA-A2 tetramer formation) [3]: > 50%
28 | B1 | – | percentage of fluorescence relative to positive control (HLA-A2 tetramer formation) [3]: > 50%
29 | B2 | – | percentage of fluorescence relative to positive control (HLA-A2 tetramer formation) [3]: > 50%
30 | RLLHLESFL (Synthetic peptide) [chimeric transcript-derived peptide RLLHLESFL] | – | percentage of fluorescence relative to positive control (HLA-A2 tetramer formation) [3]: > 50%
31 | YLPYFLKSL (Synthetic peptide) [chimeric transcript-derived peptide YLPYFLKSL] | – | percentage of fluorescence relative to positive control (HLA-A2 tetramer formation) [3]: > 50%
